{
  "source": "patent US20040127428A1",
  "about": "“Use of D-ribose, including as a topical vehicle, to promote faster healing, including from surgical procedures” (priority 2002, published 2004)",
  "key": {"actinic keratoses": {"system": "actinic keratoses", "assay": "daily oral intake of D-ribose by the inventor, actinic keratoses", "format": "in vivo, human", "settings": "10 grams of D-ribose by mouth daily, after several months; inventor on themself", "description": "Another use for D-ribose is with certain skin lesions that are the result of solar-caused degeneration of the skin by exposure to the sun. This condition is commonly referred to as actinic keratosis. […] Since 5% of these lesions degenerate into squamous cell carcinomas, the use of ribose alone would be useful. On the other hand, it also may be used as part of a topical formulation. Topical 5-fluorouracil formulations (5-fluorouracil being a pyrimidine analogue with anti-neoplastic action because certain neoplasms incorporate uracil into their ribonucleic acid more readily than in normal cells) have been used to eradicate actinic keratosis in place of “spot” cryosurgery and curettage, with as much as 5% fluorouracil used. Recently there came on the market a new microsphere-based formulation using a microsphere vehicle called Microsponge® in a topical cream containing only 0.5% fluorouracil. It is applied once daily with good results and less than 1/40th the systemic fluorouracil absorption compared to that of 5% fluorouracil. The course of treatment ranged over a 4-week period. While using D-ribose systemically by itself works slowly on presumed, non-malignant actinic keratoses and senile keratoses when malignancy is questioned (as it always must be even with a histological or clinical diagnosis to the contrary), using D-ribose systemically is not enough for every case."}, "wound or burn": {"system": "wound or burn", "assay": "healing of wounds and burns with ribose, alone or with antibiotics", "format": "in vivo", "settings": "ribose by itself, taken internally and/or placed on the skin", "description": "TENS devices were part of patent application No. 09/545,121 as one of the non-living source energy devices and how they relate to D-ribose. Shortly before the turn of the 21st century, an important ATP precursor, D-ribose, became commercially available at prices low enough to enable it to be mass marketed. Before this Carniglia, et al, in U.S. Pat. Nos. 4,923,851 and 5,391,550 taught that ribose along with other nutrients helped heal induced skin lesions in mice but only as one of several listed precursors. […] The reason for this is that ribose is not available in quantity in food like other nutrients are. This component of ATP must be synthesized from glucose in the mitochondria in the glucose hexophosphate shunt (also called the pentose phosphate pathway) where a carbon atom is removed tediously by enzymatic action from glucose and phosphorylated over from 72 to 96 hours to provide the phosphorylated ribose radical. […]"}},
  "data": [
    {"compound": "O=C[C@H](O)[C@H](O)[C@H](O)CO", "note": "[D-ribose]", "values": [
      {"measurement": "large actinic keratoses on forehead and wrists", "setting": "actinic keratoses", "result": "simply disappeared"},
      {"measurement": "healing", "setting": "wound or burn", "result": "helps healing significantly"}
    ]}
  ]
}
